# From US5614623A, “Diastereomers of 1-(isopropoxycarbonyloxy)ethyl 3-cephem-4-carboxylate and processes for their preparation” (Hoechst Aktiengesellschaft, priority 1991, dated 1997)
# Where two headings read alike, the source gives them in different places.
# Key:
# [1] = stability under the conditions of column chromatography; format: physicochemical; details: both diastereomers and the diastereomer mixture
# [2] = test system: enzymes endogenous to the body; details: after absorption, by enzymes endogenous to the body; cited from earlier work
# [3] = various animal species and man; cited from earlier work
# [4] = recovery rate of the cephalosporin with free carboxyl group in the urine of dogs after oral administration of the diastereomeric prodrug ester (enteral absorption); format: in vivo; details: for bioavailability: comparison between the diastereomers / with the diastereomer mixture of cefpodoxime proxetil
# [5] = diastereomers; T. Nishimura et al., The Journal of Antibiotics 40, 81-90 (1987); cited from earlier work
structure (smiles),measurement,setting,value
"COCC1=C(C(=O)OC(C)OC(=O)OC(C)C)N2C(=O)[C@@H](NC(=O)/C(=N\OC)c3csc(N)n3)[C@H]2SC1 (mixture of isomers) [cefpodoxime proxetil, 1-(Isopropoxycarbonyloxy)ethyl (6R, 7R)-7-[2-(2-aminothiazol-4-yl)-2-(Z)-(methoxyimino)acetamido]-3-methoxymethyl-3-cephem-4-carboxylate (diastereomer mixture, Cefpodoxime Proxetil)]",stability,[1],unstable
same,cleavage to the antibiotically active cephalosporin having a free carboxyl group,[2],rapidly and completely cleaved
same,enteral absorption,[3],readily enterally absorbed
"COCC1=C(C(=O)OC(C)OC(=O)OC(C)C)N2C(=O)[C@@H](NC(=O)/C(=N\OC)c3csc(N)n3)[C@H]2SC1 (single isomer, unassigned; diastereomer b) [Example 8]",enteral absorption,[4]; as shown in Table 1,increased enteral absorption
same,bioavailability,[4]; listed as the more absorbable diastereomer,higher bioavailability than the diastereomer mixture
same,bioavailability,[4]; listed as the more polar of the two diastereomers,higher bioavailability
CC(OC(=O)OC1CCCCC1)OC(=O)C1=C(CSc2nnnn2CCN(C)C)CS[C@@H]2[C@H](NC(=O)Cc3csc(N)n3)C(=O)N12 (stereo partly shown) [cefotiam hexetil],effect of configuration in the 1-position on the level of enteral absorption,[5],no effect on the level of enteral absorption
